# Measured values reported in patent US20210401931A1, “METHODS AND MATERIALS FOR TREATING CANCER” (Mayo Foundation for Medical Education and Research, priority 2018, published 2021).
# Ends that are not written are not given here.
# Test system: PTEN-CaP8 cells
# Assay: Pd-l1 and NFκB target gene expression in PTEN-CaP8 cells expressing RL peptide
# Assay type: cell-based, mouse
# Procedure: FIGS. 13A-F. (A, B) PC-3 cells were treated with or without gamma irradiation (IR) (12 Gy). 24 hours post treatment, cells were treated with or without Helenalin (2 μM). 24 hours after treatment, cells were harvested for western blotting analysis (A) and RT-qPCR analysis (B). All data were shown as mean values±SD (n=3). “ns”=not significant, *** P<0.001. (C) PTEN-CaP8 cells were infected with lentivirus expression Tsin control or Tsin-RL S249D/T252D peptide. 72 hours post infection, cell were harvested for western blotting analysis. (D, E) PTEN-CaP8 cells were infected with lentivirus expression Tsin control or Tsin-RL S249D/T252D peptide. 72 hours post infection, cells were treated with or without gamma irradiation (12 Gy) for 48 hours. Cells were harvested for MTS assay (D) and RT-qPCR (E). All data were shown as mean values±SD (n=3). “ns”=not significant, ** P<0.01; *** P<0.001. (F) Schematic diagram depicting the treatment plan for mice bearing subcutaneous PTEN-CaP8 tumors.
# Total RNA was isolated using TRIzol reagent (Thermo Fisher Scientific). The NanoDrop 2000 spectrophotometer (Thermo Fisher Scientific) was used to assess RNA yield and quality. […] Quantitative real-time PCR was performed by mixing cDNA, gene-specific primers, and IQ SYRB Green Supermix and detected by iCycler QTX detection system (Bio-Rad). The 2-ΔCt method was used to quantitate fold changes by normalizing to GAPDH. […]
substance,measurement,setting,value
"RL-S249D/T252D: S249/T252 phospho-mimicking R-Linker (RL) peptide: fragment of RB-N containing 21 amino acids surrounding S249/T252, expressed SFB-tagged or by lentivirus (NGDPRDPRRGQNRSARIAKQL; also: expressed SFB-tagged (tag left off))",expression of anti-apoptotic / pro-survival NFκB target genes,"PTEN-CaP8 cells, lentiviral peptide expression",blocked
same,Pd-l1 expression in PTEN-CaP8 cells,"lentiviral Tsin-RL S249D/T252D, 72 hours",completely blocked
